Data as given in the NIST ThermoML archive (doi:10.1016/j.tca.2011.01.019).
“And” between values parts separate entries of the source, which are not always exact repeats. Equal values may be shown once.

Legend:
[1] = xn = mol fraction of the nth substance listed; settings: 101 kPa, Liquid; for speed of sound: Linear variable-path acoustic interferometer; for mass density: Pycnometric method
[2] = 101 kPa, Liquid; for speed of sound: Linear variable-path acoustic interferometer; for mass density: Pycnometric method

C1CCOC1 [tetrahydrofuran] + Cc1ccccc1N
[1], x1 = 1
Settings | mass density [kg/m3] | speed of sound [m/s]
303.15 K | 876.9 | 1254
313.15 K | 865.7 | 1207
323.15 K | 854.8 | 1165

Cc1ccccc1N [2-methylaniline] + CC(C)OC(C)C
[1]
Settings | mass density, 303.15 K [kg/m3] | mass density, 313.15 K [kg/m3] | mass density, 323.15 K [kg/m3] | speed of sound, 303.15 K [m/s] | speed of sound, 313.15 K [m/s] | speed of sound, 323.15 K [m/s]
x2 = 0 | 990.1 | 981.7 | 973.3 | 1579 | 1539 | 1501
x2 = 0.0717 | 968.9 | 962.3 | 955.7 | 1530 | 1491 | 1457
x2 = 0.1513 | 946.3 | 940.3 | 934.4 | 1475 | 1437 | 1404
x2 = 0.2389 | 922 | 916.1 | 910.4 | 1415 | 1378 | 1343
x2 = 0.3255 | 898.8 | 892.6 | 886.4 | 1359 | 1320 | 1284
x2 = 0.4206 | 873.5 | 866.9 | 860.2 | 1299 | 1259 | 1224
x2 = 0.5248 | 845.6 | 838.8 | 831.6 | 1237 | 1197 | 1160
x2 = 0.625 | 817.9 | 811 | 803.6 | 1180 | 1139 | 1103
x2 = 0.7415 | 784.9 | 777.6 | 770 | 1116 | 1074 | 1038
x2 = 0.866 | 749.3 | 741 | 732.8 | 1049 | 1007 | 968

Cc1ccccc1N [2-methylaniline] + C1CCOC1
[1]
Settings | mass density, 303.15 K [kg/m3] | mass density, 313.15 K [kg/m3] | mass density, 323.15 K [kg/m3] | speed of sound, 303.15 K [m/s] | speed of sound, 313.15 K [m/s] | speed of sound, 323.15 K [m/s]
x2 = 0 | 990.1 | 981.7 | 973.3 | 1579 | 1539 | 1501
x2 = 0.0828 | 984 | 975.9 | 968 | 1559 | 1519 | 1482
x2 = 0.1818 | 977 | 969.2 | 961.5 | 1534 | 1493 | 1458
x2 = 0.2807 | 969.9 | 962.2 | 954.6 | 1508 | 1467 | 1431
x2 = 0.3704 | 962.6 | 954.9 | 947.3 | 1482 | 1442 | 1406
x2 = 0.4652 | 953.7 | 945.9 | 938.2 | 1455 | 1414 | 1377
x2 = 0.5732 | 941.7 | 933.8 | 925.9 | 1421 | 1379 | 1342
x2 = 0.6764 | 928.4 | 920.1 | 911.9 | 1382 | 1341 | 1305
x2 = 0.7791 | 913.3 | 904.7 | 896 | 1343 | 1301 | 1264
x2 = 0.888 | 895.8 | 886.4 | 877 | 1300 | 1255 | 1219

C1CCOC1 [tetrahydrofuran] + Cc1cccc(N)c1
[1], x1 = 1
Settings | mass density [kg/m3] | speed of sound [m/s]
303.15 K | 876.9 | 1254
313.15 K | 865.7 | 1207
323.15 K | 854.8 | 1165

Cc1cccc(N)c1 [3-methylaniline] + C1CCOC1
[1]
Settings | mass density, 303.15 K [kg/m3] | mass density, 313.15 K [kg/m3] | mass density, 323.15 K [kg/m3] | speed of sound, 303.15 K [m/s] | speed of sound, 313.15 K [m/s] | speed of sound, 323.15 K [m/s]
x2 = 0 | 980.8 | 972.7 | 964.6 | 1567 | 1533 | 1492
x2 = 0.0864 | 975.3 | 968 | 960.1 | 1544 | 1513 | 1474
x2 = 0.1853 | 969.2 | 962.6 | 955 | 1522 | 1488 | 1451
x2 = 0.2831 | 963 | 956.4 | 948.9 | 1497 | 1463 | 1425
x2 = 0.3776 | 956.4 | 949.7 | 941.9 | 1472 | 1436 | 1398
x2 = 0.4693 | 949 | 942 | 933.9 | 1447 | 1409 | 1372
x2 = 0.5689 | 939.3 | 931.9 | 923.6 | 1416 | 1375 | 1339
x2 = 0.6803 | 926.2 | 918.4 | 909.8 | 1378 | 1338 | 1301
x2 = 0.7808 | 912.4 | 904.3 | 895.3 | 1341 | 1300 | 1261
x2 = 0.8886 | 895.6 | 886.8 | 877.2 | 1300 | 1255 | 1217

CC(C)OC(C)C [diisopropyl ether]
[2]
Settings | mass density | speed of sound [m/s]
303.15 K | 712.9 kg/m3 | 976
313.15 K | 702.5 kg/m3 and 702.9 kg/m3 | 932
323.15 K | 691.9 kg/m3 | 889

Cc1ccccc1N [2-methylaniline]
[2]
Settings | mass density [kg/m3] | speed of sound [m/s]
303.15 K | 990.1 | 1579
313.15 K | 981.7 | 1539
323.15 K | 973.3 | 1501

CC(C)OC(C)C [diisopropyl ether] + Cc1cccc(N)c1
[1], x1 = 1
Settings | mass density [kg/m3] | speed of sound [m/s]
303.15 K | 712.9 | 976
313.15 K | 702.9 | 932
323.15 K | 691.9 | 889

Cc1cccc(N)c1 [3-methylaniline]
[2]
Settings | mass density [kg/m3] | speed of sound [m/s]
303.15 K | 980.8 | 1567
313.15 K | 972.7 | 1533
323.15 K | 964.6 | 1492

C1CCOC1 [tetrahydrofuran]
[2]
Settings | mass density [kg/m3] | speed of sound [m/s]
303.15 K | 876.9 | 1254
313.15 K | 865.7 | 1207
323.15 K | 854.8 | 1165

Cc1cccc(N)c1 [3-methylaniline] + CC(C)OC(C)C
[1]
Settings | mass density, 303.15 K [kg/m3] | mass density, 313.15 K [kg/m3] | mass density, 323.15 K [kg/m3] | speed of sound, 303.15 K [m/s] | speed of sound, 313.15 K [m/s] | speed of sound, 323.15 K [m/s]
x2 = 0 | 980.8 | 972.7 | 964.6 | 1567 | 1533 | 1492
x2 = 0.0743 | 961 | 954.3 | 946.9 | 1515 | 1482 | 1443
x2 = 0.1546 | 939.9 | 934 | 927 | 1462 | 1429 | 1391
x2 = 0.2421 | 917.2 | 911.5 | 904.6 | 1404 | 1371 | 1334
x2 = 0.3279 | 894.6 | 888.9 | 881.9 | 1350 | 1315 | 1280
x2 = 0.4275 | 868 | 862.1 | 855 | 1289 | 1254 | 1218
x2 = 0.53 | 840 | 834 | 826.9 | 1230 | 1193 | 1158
x2 = 0.6285 | 812.7 | 806.4 | 799.4 | 1175 | 1138 | 1101
x2 = 0.7424 | 781.2 | 774.5 | 767 | 1113 | 1075 | 1036
x2 = 0.8651 | 747.8 | 740.1 | 731.6 | 1048 | 1007 | 966

CC(C)OC(C)C [diisopropyl ether] + Cc1ccccc1N
[1], x1 = 1
Settings | mass density [kg/m3] | speed of sound [m/s]
303.15 K | 712.9 | 976
313.15 K | 702.5 | 932
323.15 K | 691.9 | 889
